Consider three compounds from patent US5968751A, “Method for detecting the presence of protein C antibody in a fluid sample” (The Scripps Research Institute, priority 1997, dated 1999).

In assay [1] the target is APC (Homo sapiens, UniProt P04070). Nature of the assay: Xa-1-stage coagulation assay, inhibition of APC anticoagulant activity. It is filed as biochemical. More on the design: Protein C consists of a 155 amino acid residue light chain and a 262 amino acid residue heavy chain; from tissue; host or cells: human plasma factor IX concentrate. The method, then:
For testing the inhibition of the synthetic peptides on APC activity described above, Xa-1-stage coagulation assays were also performed as described. See Seegers et al., Thrombosis Res., 13:233-243 (1978); Marlar et al., supra; and Walker et al., J. Biol. Chem., 265:1484-1489 (1990). PC heavy chain-derived peptides listed below in Table 6 and PC light chain-derived peptides listed below in Table 7 were prepared as described above and separately admixed for a final concentration of 2 mM with 120 nM APC in 100 μl of TBS-BSA at pH 7.4 to form separate peptide-APC admixtures. The resulting admixtures were maintained for ten minutes at 37° C. Separate aliquots of peptides maintained under the same conditions in the absence of APC served as controls for the inhibitory effect of synthetic peptides on APC anticoagulant activity. After the maintenance period, 100 μl of NHP and 100 μl of 200 μg/ml of rabbit brain cephalin (Sigma) were admixed into each peptide admixture and maintained for 200 seconds at 37° C. to form pre-coagulation admixtures. In some experiments, Factor VIII deficient plasma (George King Bio-Medical, Inc.) was used in the place of NHP to determine the effect of Factor VIII on the assay system. Coagulation was then initiated by the admixture of 100 μl of 0.62 nM human activated Factor X (Xa) (Enzyme Research Laboratories, Southbend, Ind.) in TBS-BSA containing 30 mM CaCl2 prewarmed to 37° C. to each of the pre-coagulation admixtures.
The time for clot formation was measured by an Electra 700 Automatic Coagulation Timer (Medical Laboratory Automation, Inc., Mount Vernon, N.Y.). Each peptide's effect was determined in duplicate. The results of the inhibition of APC anticoagulant activity by synthetic peptides as measured in Xa-1-stage coagulation assays are presented in Tables 6 and 7 below with the APTT assay results and are presented as the mean values obtained with APTT assays. Data for results with PC heavy chain-derived peptides are shown in Table 6 and data for results with PC light chain-derived peptides are shown in Table 7.
The results of inhibition of APC anticoagulant activity by PC light chain-derived peptides in a Xa-1 stage coagulation assay are shown in Table 7. The assay was performed in the presence of NHP. Peptides used in the assay were prepared as described in Example 1 and are listed in Table 7 by their corresponding residue positions in native PC protein (SEQ ID NO 1). For all peptides except PC142-155 used in the Xa-1 stage assays listed in Table 7, cysteine residues in the native PC amino acid residue sequence were substituted by either serine or glycine in the synthesized peptide. This was done to prevent multiple disulfide formation and subsequent potential polymerization among peptides with multiple cysteines. […]

Assay [2] concerns the target thrombin (Homo sapiens, UniProt P00734). Nature of the assay: clotting of purified fibrinogen by thrombin. The class given is biochemical.

No end group written: not given here.

APC, sequence (P04070 43-197 limits assumed): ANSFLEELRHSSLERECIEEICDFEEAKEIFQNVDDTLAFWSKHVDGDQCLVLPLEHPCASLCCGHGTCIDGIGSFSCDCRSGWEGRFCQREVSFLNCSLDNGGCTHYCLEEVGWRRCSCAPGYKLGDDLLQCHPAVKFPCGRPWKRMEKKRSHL
APC, sequence (P04070 212-450 limits assumed): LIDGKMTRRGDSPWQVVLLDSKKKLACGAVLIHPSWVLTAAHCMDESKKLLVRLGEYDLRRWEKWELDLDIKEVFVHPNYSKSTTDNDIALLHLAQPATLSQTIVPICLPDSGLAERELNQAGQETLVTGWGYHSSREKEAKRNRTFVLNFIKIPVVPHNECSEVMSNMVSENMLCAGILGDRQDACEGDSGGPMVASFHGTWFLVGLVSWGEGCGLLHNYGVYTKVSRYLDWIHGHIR

Take `CSCC[C@H](NC(=O)[C@H](CCCNC(=N)N)NC(=O)[C@H](CCCCN)NC(=O)[C@H](Cc1c[nH]c2ccccc12)NC(=O)[C@@H]1CCCN1C(=O)[C@H](CCCNC(=N)N)NC(=O)CN)C(=O)N[C@@H](CCC(=O)O)C(=O)N[C@@H](CCCCN)C(=O)N[C@@H](CCCCN)C(=O)N[C@@H](CCCNC(=N)N)C(=O)N[C@@H](CO)C(=O)N[C@@H](Cc1c[nH]cn1)C(=O)N[C@@H](CC(C)C)C(=O)N[C@@H](CS)C(N)=O` [PC142-155, Gly-Arg-Pro-Trp-Lys-Arg-Met-Glu-Lys-Lys-Arg-Ser-His-Leu]: the IC50 in assay [1] (Xa-1-stage assay in NHP, read-out: 50% inhibition of APC anticoagulant activity) worked out at 25 µM. Also, the inhibition (as a rule, the share of the control response that was lost under treatment) at 500 µM in assay [1] (final peptide concentration 500 μM, NHP, 0 = no observable effect +10%) came to 80%.
With “KRNRTFVLNFIKIPV-NH2 [PC311-325, Lys-Arg-Asn-Arg-Thr-Phe-Val-Leu-Asn-Phe-Ile-Lys-Ile-Pro-Val]”, in assay [2], the “effect on the clotting of purified fibrinogen by thrombin” value is “no effect”.
In the case of “MHKLREGKWRPKSR [Scrambled peptide, reference compound]”, the “effect on the clotting of purified fibrinogen by thrombin” value in assay [2] is given as “no effect”. For the same compound, in assay [1] (Xa-1-stage assay), the “inhibition of APC anticoagulant activity” value is on record as “very little if any significant inhibition”.
